The target in one assay is T1, human CRTH2-Rluc (Homo sapiens, UniProt Q9Y5Y4, V204A).
T1 construct: expressed in transfected cells
T1 sequence (Q9Y5Y4 1-395 V204A): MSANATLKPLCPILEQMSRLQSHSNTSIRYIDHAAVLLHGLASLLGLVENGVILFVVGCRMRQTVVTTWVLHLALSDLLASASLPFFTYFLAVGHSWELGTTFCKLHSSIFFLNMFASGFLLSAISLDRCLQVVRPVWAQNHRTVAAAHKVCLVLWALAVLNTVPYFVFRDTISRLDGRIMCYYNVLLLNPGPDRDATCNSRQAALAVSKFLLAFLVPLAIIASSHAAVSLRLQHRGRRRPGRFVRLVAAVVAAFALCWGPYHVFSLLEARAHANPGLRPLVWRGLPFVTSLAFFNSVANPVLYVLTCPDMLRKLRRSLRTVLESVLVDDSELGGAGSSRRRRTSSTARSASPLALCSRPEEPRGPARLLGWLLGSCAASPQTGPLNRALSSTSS
Put plainly: Functional antagonist BRET assay on HEK293 cells stably expressing CRTH2-Rluc and GFP2-β-arr2. The assay is classed as cell-based. Conditions: antagonist incubated 15 minutes before agonist, read-out: Antag. IC50. From the text: (§1) Generation/origin of the cDNA Constructs. The coding sequence of the human CRTH2 receptor (genbank accession no NM_004778) was amplified by PCR from a human hippocampus cDNA library and inserted into the pcDNA3.1(+) expression vector (invitrogen) via 5′ HindIII and 3′ EcoRI. To generate a CRTH2-Renilla luciferase (CRTH2-Rluc) fusion protein, the CRTH2 coding sequence without a STOP codon and Rluc were amplified, fused in frame by PCR and subcloned into the pcDNA3.1(+)Zeo expression vector (invitrogen). Human β-arrestin2 (β-arr2) N-terminally tagged with GFP^2 (βarr2-GFP^2) and Renilla luciferase were purchased from BioSignal Packard Inc, (Montreal, Canada). The sequence identity of the construct was verified by restriction endonuclease digests and sequencing in both directions on an ABI Prism (Applied Biosystems, Foster City, Calif.).
(§2) Cell Culture and Transfection. COS-7 cells were grown in Dulbecco's modified Eagle's medium (DMEM) 1885 supplemented with 10% fetal bovine serum, 100 units/ml penicillin, […] streptomycin, and kept at 37° C. in a 10% CO2 atmosphere. HEK293 cells were maintained in Minimum Essential medium (MEM) supplemented with 10% (v/v) heat inactivated fetal calf serum (HIFCS), 2 mM Glutamax™-I, 1% non essential amino acids (NEAA), 1% sodium pyruvate and 10 μg/ml gentamicin. For binding experiments, COS7 cells were transiently transfected with the CRTH2 receptor using a calcium phosphate-DNA coprecipitation method with the addition of chloroquine (as described by Hoist et al., 2001*). To perform the functional Bioluminescence Resonance Energy Transfer (BRET) assays, a HEK293 cell clone stably expressing βarr2-GFP^2 and CRTH2-Rluc was generated (CRTH2-HEK293 cells).
BRET assay. Functional BRET assays were performed on HEK293 cells stably expressing human CRTH2-Rluc and GFP^2-β-arr2. Prior to their use in the BRET assay cells were detached and re-suspended in D-PBS with 1000 mg/L L-Glucose at a density of 2×10^6 cells/mL. DeepBlueC™ was diluted to 50 μM in D-PBS with 1000 mg/L L-Glucose (light sensitive). 100 μL of cell suspension was transferred to wells in a 96-well microplate (white OptiPlate) and placed in the Mithras LB 940 instrument (BERTHOLD TECHNOLOGIES, Bad Wildbad, Germany). 12 μL/well agonist was then injected by injector 1 and 10 μL/well DeepBlueC™ was injected simultaneously by injector 2. Five seconds after the injections the light output from the well was measured sequentially at 400 nm and 515 nm, and the BRET signal (mBRET ratio) was calculated by the ratio of the fluorescence emitted by GFP^2-β-arr2 (515 nm) over the light emitted by the receptor-Rluc (400 nm). Antagonists were added before placing the microplates into the Mithras LB 940 and allowed to incubate for 15 minutes prior to the addition of agonist and DeepBlueC™. Compounds were dissolved in DMSO and the final DMSO concentration was kept constant at 1% in the assay.
(§3) Curve analysis was performed with the GraphPadPrism software 3.0 (Graphpad Prism Inc., San Diego, USA) and IC50 values were calculated as a measure of the antagonistic potencies.

The target of the next assay is T2, human CRTH2 receptor (Homo sapiens, UniProt Q9Y5Y4, V204A).
T2 construct: expressed in transfected cells; host or cells: COS-7 cells, transient, pcDNA3.1(+)
T2 sequence (Q9Y5Y4 1-395 V204A): T1 sequence (Q9Y5Y4 1-395 V204A)
Put plainly: Receptor binding assay: [3H]PGD2 competition on whole COS-7 cells transfected with CRTH2. The conditions noted are these: 0.1 nM [3H]PGD2, whole cells, 3 h at 4° C.
Source text: as §1, §2
Binding assay. 24 h after transfection COS-7 cells were seeded into 96 well plates at a density of 30.000 cells/well. Competition binding experiments on whole cells were then performed about 18-24 h later using 0.1 nM [^3H]PGD2 (NEN, 172 Ci/mmol) in a binding buffer consisting of HBSS (GIBCO) and 10 mM HEPES. Competing ligands were diluted in DMSO which was kept constant at 1% (v/v) of the final incubation volume. Total and nonspecific binding were determined in the absence and presence of 10 μM PGD2. Binding reactions were routinely conducted for 3 h at 4° C. and terminated by 2 washes (100 μl each) with ice cold binding buffer. Radioactivity was determined by liquid scintillation counting in a TOPCOUNTER (Packard) following over night incubation in Microscint 20. Stable HEK293 cells were seeded at a density of 30.000 cells/well 18-24 h prior to the binding assay which was performed essentially as described for COS7 cells above. Determinations were made in duplicates.
as §3

Molecules are shown by their SMILES. A value given as a limit tells only on which side of the number the result lay.

Take `O=C(O)Cc1sc(C(c2ccccc2)c2ccccc2)nc1-c1cccc(F)c1` [Compound A23, [2-Benzhydryl-4-(3-fluoro-phenyl)-thiazol-5-yl]-acetic acid]: the IC50 on human CRTH2-Rluc and on human CRTH2 receptor was under 500 nM throughout.
Take `O=C(O)Cc1sc(C(c2ccccc2)c2ccc(Cl)cc2)nc1-c1ccc(F)cc1` (stereo not shown) [Compound A10, [2-[(4-Chloro-phenyl)-phenyl-methyl]-4-(4-fluoro-phenyl)-thiazol-5-yl]-acetic acid]: the IC50 at human CRTH2-Rluc and on human CRTH2 receptor was under 500 nM throughout.
For the compound `O=C(O)Cc1sc(C(NC(=O)c2ccc(C(F)(F)F)cc2)c2ccccc2)nc1-c1ccc(F)cc1` (stereo not shown) [Compound A19, {4-(4-Fluoro-phenyl)-2-[phenyl-(4-trifluoromethyl-benzoylamino)-methyl]-thiazol-5-yl}-acetic acid], the results for the IC50 on human CRTH2-Rluc and on human CRTH2 receptor were over 5000 nM and under 500 nM, respectively.
Regarding `O=C(O)Cc1sc(C(c2ccccc2)c2ccc(Cl)cc2)nc1-c1ccc(Cl)cc1` (stereo not shown) [Compound A8, {4-(4-Chloro-phenyl)-2-[(4-chloro-phenyl)-phenyl-methyl]-thiazol-5-yl}-acetic acid], the IC50 on human CRTH2-Rluc and at human CRTH2 receptor was under 500 nM throughout.
On to `O=C(O)Cc1sc(C(c2ccccc2)c2ccc(F)cc2)nc1-c1ccc(Cl)cc1` (stereo not shown) [Compound A13, {4-(4-Chloro-phenyl)-2-[(4-fluoro-phenyl)-phenyl-methyl]-thiazol-5-yl}-acetic acid], for which the half-maximal inhibitory concentration (IC50) at human CRTH2-Rluc and at human CRTH2 receptor was under 500 nM in each case.
Turning to `O=C(O)Cc1sc(Cc2ccccc2-c2ccccc2)nc1-c1ccc(Cl)cc1` [Compound A34, [2-Biphenyl-2-ylmethyl-4-(4-chloro-phenyl)-thiazol-5-yl]-acetic acid], the IC50 at human CRTH2-Rluc and at human CRTH2 receptor was under 500 nM each time.
On to `O=C(O)Cc1sc(C(c2ccccc2)c2ccccc2)nc1-c1ccc(F)cc1` [Compound A4, [2-Benzhydryl-4-(4-fluoro-phenyl)-thiazol-5-yl]-acetic acid], for which the IC50 on human CRTH2-Rluc and on human CRTH2 receptor was under 500 nM each time.
On to `O=C(O)Cc1sc(C(Cc2ccccc2)c2ccc(Cl)cc2)nc1-c1ccc(F)cc1` (stereo not shown) [Compound A7, [2-[1-(4-Chloro-phenyl)-2-phenyl-ethyl]-4-(4-fluoro-phenyl)-thiazol-5-yl]-acetic acid], for which the IC50 on human CRTH2-Rluc and on human CRTH2 receptor was under 500 nM throughout.
On to `O=C(O)Cc1sc(C(c2ccccc2)c2ccccc2)nc1-c1ccc(F)c(F)c1` [Compound A26, [2-Benzhydryl-4-(3,4-difluoro-phenyl)-thiazol-5-yl]-acetic acid], for which the IC50 on human CRTH2-Rluc and on human CRTH2 receptor was under 500 nM in each case.
Turning to `COc1ccc(C(c2ccccn2)c2nc(-c3ccc(Cl)cc3)c(CC(=O)O)s2)cc1` (stereo not shown) [Compound A31, {4-(4-Chloro-phenyl)-2-[(4-methoxy-phenyl)-pyridin-2-yl-methyl]-thiazol-5-yl}-acetic acid], the IC50 at human CRTH2-Rluc and at human CRTH2 receptor was under 500 nM throughout.
In the case of `O=C(O)Cc1sc(C(c2ccc(F)cc2)c2ccc(F)cc2)nc1-c1cccc(F)c1` [Compound A27, [2-[Bis-(4-fluoro-phenyl)-methyl]-4-(3-fluoro-phenyl)-thiazol-5-yl]-acetic acid], the IC50 at human CRTH2-Rluc and on human CRTH2 receptor was under 500 nM throughout.
`O=C(O)Cc1sc(C(c2ccc(F)cc2)c2ccc(F)cc2)nc1-c1ccc(F)c(F)c1` [Compound A25, [2-[Bis-(4-fluoro-phenyl)-methyl]-4-(3,4-difluoro-phenyl)-thiazol-5-yl]-acetic acid]: the IC50 at human CRTH2-Rluc and on human CRTH2 receptor was under 500 nM throughout.
For the compound `O=C(O)Cc1sc(C(c2ccccc2)c2ccccc2)nc1-c1ccc(Cl)cc1` [Compound A1, [2-Benzhydryl-4-(4-chloro-phenyl)-thiazol-5-yl]-acetic acid], the IC50 on human CRTH2-Rluc and at human CRTH2 receptor was under 500 nM in each case.
In the case of `CCC(c1ccccc1)c1nc(-c2ccc(Cl)cc2)c(CC(=O)O)s1` (stereo not shown) [Compound A6, [4-(4-Chloro-phenyl)-2-(1-phenyl-propyl)-thiazol-5-yl]-acetic acid], the IC50 on human CRTH2 receptor was under 500 nM.
On to `O=C(O)Cc1sc(Cc2ccccc2-c2ccccc2)nc1-c1ccc(F)cc1` [Compound A36, [2-Biphenyl-2-ylmethyl-4-(4-fluoro-phenyl)-thiazol-5-yl]-acetic acid], for which the IC50 at human CRTH2-Rluc and at human CRTH2 receptor was under 500 nM throughout.
Turning to `O=C(O)Cc1sc(C(c2ccccc2)c2ncccc2Cl)nc1-c1ccc(Cl)cc1` (stereo not shown) [Compound A29, {4-(4-Chloro-phenyl)-2-[(3-chloro-pyridin-2-yl)-phenyl-methyl]-thiazol-5-yl}-acetic acid], on human CRTH2 receptor, the IC50 is under 500 nM.
The same measure, in the same setting: as for `O=C(O)Cc1sc(C(c2ccccc2)C2CCCCC2)nc1-c1ccc(Cl)cc1` (stereo not shown) [Compound A32, [4-(4-Chloro-phenyl)-2-(cyclohexyl-phenyl-methyl)-thiazol-5-yl]-acetic acid], the figure is 500 to 5000 nM; as for `N#Cc1cccc(-c2ccccc2Cc2nc(-c3ccc(F)cc3)c(CC(=O)O)s2)c1` [Compound A43, [2-(3′-Cyano-biphenyl-2-ylmethyl)-4-(4-fluoro-phenyl)-thiazol-5-yl]-acetic acid], under 500 nM.
`COc1ccc(C(c2ccccn2)c2nc(-c3ccc(F)cc3)c(CC(=O)O)s2)cc1` (stereo not shown) [Compound A30, {4-(4-Fluoro-phenyl)-2-[(4-methoxy-phenyl)-pyridin-2-yl-methyl]-thiazol-5-yl}-acetic acid] gave an IC50 on human CRTH2 receptor of under 500 nM.
Regarding `O=C(O)Cc1sc(Cc2ccccc2Oc2ccccc2)nc1-c1ccc(Cl)cc1` [Compound A35, [4-(4-Chloro-phenyl)-2-(2-phenoxy-benzyl)-thiazol-5-yl]-acetic acid], at human CRTH2 receptor, the IC50 fell in the range of 500 to 5000 nM.
On to `COc1ccccc1-c1ccccc1Cc1nc(-c2ccc(F)cc2)c(CC(=O)O)s1` [Compound A41, [4-(4-Fluoro-phenyl)-2-(2′-methoxy-biphenyl-2-ylmethyl)-thiazol-5-yl]-acetic acid], for which, on human CRTH2 receptor, the IC50 was under 500 nM.
On the same count and under the same terms, with `O=C(O)Cc1sc(Cc2ccccc2-c2cccc(OC(F)(F)F)c2)nc1-c1ccc(F)cc1` [Compound A44, [4-(4-Fluoro-phenyl)-2-(3′-trifluoromethoxy-biphenyl-2-ylmethyl)-thiazol-5-yl]-acetic acid] the figure was under 500 nM; with `CC(=O)Nc1cccc(-c2ccccc2Cc2nc(-c3ccc(F)cc3)c(CC(=O)O)s2)c1` [Compound A39, [2-(3′-Acetylamino-biphenyl-2-ylmethyl)-4-(4-fluoro-phenyl)-thiazol-5-yl]-acetic acid], 500 to 5000 nM.
